The values that follow come from ChEMBL document CHEMBL4480433, “Investigation of B,C-ring truncated deguelin derivatives as heat shock protein 90 (HSP90) inhibitors for use as anti-breast cancer agents” (Bioorg Med Chem, 2019).

What all share (type): cell-based
In assay [1] the target is T1, Heat shock protein HSP90 (Homo sapiens) (UniProt P07900+P08238). The assay is described as follows: Inhibition of HSP90 in human H1299 cells assessed as reduction in HIF-1alpha at 100 nM incubated for 72 hrs and subsequently incubated under hypoxic conditions for 12 hrs by Western blot analysis relative to control. To be noted: values are per cent of control.
Assay [2] deals with T1, Heat shock protein HSP90 (Homo sapiens). The assay is described as follows: Inhibition of HSP90 in human H1299 cells assessed as reduction in HIF-1alpha at 10 nM incubated for 72 hrs and subsequently incubated under hypoxic conditions for 12 hrs by Western blot analysis relative to control. To be noted: values are per cent of control. Background: Immunoblotting shows a protein as a band on a membrane.

The target is the same in assay [3]. As to the kind of experiment: Inhibition of HSP90 in human H1299 cells assessed as reduction in HIF-1alpha incubated for 72 hrs and subsequently incubated under hypoxic conditions for 12 hrs by Western blot analysis relative to control.

Consider `COc1ccc(N(CCO)C(=O)c2ccc3c(c2OC)C=CC(C)(C)O3)cc1OC`, for which the response, % of control in assay [1] came out at 133%. On the same count and under the same terms, to `COc1ccc(N(CCN2CCCC2)C(=O)c2ccc3c(c2OC)C=CC(C)(C)O3)nc1OC` belongs 66%; to `COc1ccc(N(Cc2cccnc2)C(=O)c2ccc3c(c2OC)C=CC(C)(C)O3)nc1OC`, 95.8%.

`COc1ccc(N(CCCNC(C)=O)C(=O)c2ccc3c(c2OC)C=CC(C)(C)O3)nc1OC`: in assay [1], the response, % of control turned out to be 76.6%. With `COc1ccc(N(CCC2CCNCC2)C(=O)c2ccc3c(c2OC)C=CC(C)(C)O3)nc1OC`, the results for the response, % of control in assay [2] and in assay [1] were 97.2% and 55.2%, respectively. Turning to `COc1ccc(N(Cc2cccc(Cl)c2)C(=O)c2ccc3c(c2OC)C=CC(C)(C)O3)nc1OC`, in assay [1], the response, % of control amounted to 80.2%.

As for `CCN(CC)CCN(C(=O)c1ccc2c(c1OC)C=CC(C)(C)O2)c1ccc(OC)c(OC)n1`, the response, % of control in assay [1] was determined as 64.4%. Regarding `COc1ccc(CN(C(=O)c2ccc3c(c2OC)C=CC(C)(C)O3)c2ccc(OC)c(OC)n2)cc1`, the response, % of control in assay [1] was determined as 77%. As to `COc1ccc(N(CCN(C)C)C(=O)c2ccc3c(c2OC)C=CC(C)(C)O3)c(F)c1OC`, the response, % of control in assay [2] came to 97.9%; in assay [1] it was 53.3%. For `COc1ccc(N(C(=O)c2ccc3c(c2OC)C=CC(C)(C)O3)c2ccc(F)cc2)cc1OC`, the response, % of control in assay [1] was 70.2%. For the compound `COc1ccc(N(CCCN(C)C)C(=O)c2ccc3c(c2OC)C=CC(C)(C)O3)nc1OC`, the inhibition result in assay [3] was “Dose-dependent effect”. For the same compound, the response, % of control in assay [2] amounted to 65.6%; in assay [1], 44%. In the case of `COc1ccc(N(CCN2CCN(C)CC2)C(=O)c2ccc3c(c2OC)C=CC(C)(C)O3)nc1OC`, the response, % of control was determined as 97.2% in assay [2] and 42.2% in assay [1]. Regarding `COc1ccc(N(Cc2ccccn2)C(=O)c2ccc3c(c2OC)C=CC(C)(C)O3)nc1OC`, the response, % of control in assay [1] worked out at 97%. Same read-out and setting: under `COc1ccc(N(CCN2CCCCC2)C(=O)c2ccc3c(c2OC)C=CC(C)(C)O3)cc1OC` stands 83.7%. Regarding `COc1ccc(N(Cc2ccc(F)cc2)C(=O)c2ccc3c(c2OC)C=CC(C)(C)O3)nc1OC`, the results for the response, % of control in assay [2] and in assay [1] were 104% and 63.1%, respectively. Regarding `COc1ccc(N(Cc2ccc(Cl)cc2)C(=O)c2ccc3c(c2OC)C=CC(C)(C)O3)nc1OC`, the response, % of control in assay [1] was 57.6%. Same read-out and setting: under `COc1ccc(N(Cc2cccc(F)c2)C(=O)c2ccc3c(c2OC)C=CC(C)(C)O3)nc1OC` stands 85.7%. `COc1ccc(N(CCN2CCN(C)CC2)C(=O)c2ccc3c(c2OC)C=CC(C)(C)O3)c(F)c1OC`: the response, % of control in assay [2] is 81.2%; in assay [1], 53.7%. The matching figures for `COc1ccc(N(C)C(=O)c2ccc3c(c2OC)C=CC(C)(C)O3)nc1OC`: 90.4% and 62.3%. With `COc1ccc(N(C)C(=O)c2ccc3c(c2OC)C=CC(C)(C)O3)cc1OC`, the response, % of control in assay [1] was found to be 126%. For the compound `COc1ccc(N(CCN2CCNCC2)C(=O)c2ccc3c(c2OC)C=CC(C)(C)O3)c(F)c1OC`, the response, % of control in assay [1] was found to be 54.9%. The same measure, in the same setting: under `COc1ccc(N(CCCN)C(=O)c2ccc3c(c2OC)C=CC(C)(C)O3)c(F)c1OC` stands 68.5%. For the compound `COc1ccc(N(C(=O)c2ccc3c(c2OC)C=CC(C)(C)O3)c2ccccc2)cc1OC`, the response, % of control in assay [2] is 83.7%; in assay [1] it was 52.8%. As for `COc1ccc(N(CCN2CCCCC2)C(=O)c2ccc3c(c2OC)C=CC(C)(C)O3)nc1OC`, in assay [1], the response, % of control was 79.7%. For the compound `COc1ccc(N(CCN)C(=O)c2ccc3c(c2OC)C=CC(C)(C)O3)cc1OC`, the inhibition result in assay [3] is “Dose-dependent effect”. Moreover, the response, % of control is 62.1% in assay [2] and 39.4% in assay [1]. On to `CNCCN(C(=O)c1ccc2c(c1OC)C=CC(C)(C)O2)c1ccc(OC)c(OC)n1`, for which the response, % of control in assay [2] is 93%; in assay [1] it was 41.2%. `COc1ccc(N(CCNC(=O)OC(C)(C)C)C(=O)c2ccc3c(c2OC)C=CC(C)(C)O3)nc1OC`: the response, % of control in assay [1] was determined as 57.4%. Regarding `COc1ccc(N(CCO)C(=O)c2ccc3c(c2OC)C=CC(C)(C)O3)nc1OC`, the response, % of control in assay [1] was 87.9%. Consider `COc1ccc(N(C(=O)c2ccc3c(c2OC)C=CC(C)(C)O3)c2ccc(Cl)cc2)cc1OC`, for which the response, % of control in assay [1] amounted to 81.2%.

Regarding `COc1ccc(N(Cc2ccccc2)C(=O)c2ccc3c(c2OC)C=CC(C)(C)O3)c(F)c1OC`, the response, % of control in assay [1] came out at 60.8%. For `COc1ccc(N(Cc2ccncc2)C(=O)c2ccc3c(c2OC)C=CC(C)(C)O3)nc1OC`, the values for the response, % of control in assay [2] and in assay [1] were 108% and 55.2%, respectively. As to `COc1ccc(N(CCN)C(=O)c2ccc3c(c2OC)C=CC(C)(C)O3)c(F)c1OC`, in assay [1], the response, % of control turned out to be 147%. The same measure, in the same setting: to `COc1ccc(N(CCOCc2ccccc2)C(=O)c2ccc3c(c2OC)C=CC(C)(C)O3)cc1OC` belongs 74.4%; to `COc1ccc(NC(=O)c2ccc3c(c2OC)C=CC(C)(C)O3)c(F)c1OC`, 101%; to `COc1ccc(N(Cc2ccccc2)C(=O)c2ccc3c(c2OC)C=CC(C)(C)O3)cc1OC`, 69.8%. In the case of `COc1ccc(NC(=O)c2ccc3c(c2OC)C=CC(C)(C)O3)cc1OC`, in assay [1], the response, % of control was found to be 147%. Same read-out and setting: under `COc1ccc(N(C(=O)c2ccc3c(c2OC)C=CC(C)(C)O3)c2ccc(C)cc2)cc1OC` stands 58.9%; under `COc1ccc(N(CCN2CCN(C)CC2)C(=O)c2ccc3c(c2OC)C=CC(C)(C)O3)cc1OC`, 61.9%.

Consider `COc1ccc(N(CCNC(C)=O)C(=O)c2ccc3c(c2OC)C=CC(C)(C)O3)cc1OC`, for which the response, % of control in assay [1] worked out at 127%. Regarding `COc1ccc(N(CCCN)C(=O)c2ccc3c(c2OC)C=CC(C)(C)O3)nc1OC`, the response, % of control was 111% in assay [2] and 45.3% in assay [1]. For the compound `COCCN(C(=O)c1ccc2c(c1OC)C=CC(C)(C)O2)c1ccc(OC)c(OC)c1`, the response, % of control in assay [1] was determined as 65.5%. The same measure, in the same setting: to `CNCCN(C(=O)c1ccc2c(c1OC)C=CC(C)(C)O2)c1ccc(OC)c(OC)c1F` belongs 107%. On the same count and under the same terms, under `COc1ccc(N(CCCN)C(=O)c2ccc3c(c2OC)C=CC(C)(C)O3)cc1OC` stands 100%; under `COc1ccc(N(CCOCc2ccccc2)C(=O)c2ccc3c(c2OC)C=CC(C)(C)O3)c(F)c1OC`, 65.4%; under `COc1ccc(N(CCN2CCOCC2)C(=O)c2ccc3c(c2OC)C=CC(C)(C)O3)cc1OC`, 117%.

With `COCCN(C(=O)c1ccc2c(c1OC)C=CC(C)(C)O2)c1ccc(OC)c(OC)n1`, the response, % of control in assay [1] is 52.5%. With `COc1ccc(N(CCN(C)C)C(=O)c2ccc3c(c2OC)C=CC(C)(C)O3)nc1OC`, in assay [3], the inhibition result is “Dose-dependent effect”. Moreover, the response, % of control was determined as 75.5% in assay [2] and 37.9% in assay [1].

For `COc1ccc(N(CCNC(C)=O)C(=O)c2ccc3c(c2OC)C=CC(C)(C)O3)nc1OC`, the inhibition result in assay [3] is “Dose-dependent effect”. The response, % of control was 66% in assay [2] and 58.1% in assay [1]. Turning to `COc1ccc(N(CCNC(=O)OC(C)(C)C)C(=O)c2ccc3c(c2OC)C=CC(C)(C)O3)cc1OC`, the response, % of control in assay [1] is 70.3%. On the same count and under the same terms, to `COc1ccc(N(CCN(C)C)C(=O)c2ccc3c(c2OC)C=CC(C)(C)O3)cc1OC` belongs 71%; to `CNCCN(C(=O)c1ccc2c(c1OC)C=CC(C)(C)O2)c1ccc(OC)c(OC)c1`, 75.9%; to `COc1ccc(N(CCN2CCNCC2)C(=O)c2ccc3c(c2OC)C=CC(C)(C)O3)nc1OC`, 59.4%.

On to `COc1ccc(N(CCO)C(=O)c2ccc3c(c2OC)C=CC(C)(C)O3)c(F)c1OC`, for which the response, % of control in assay [1] was 124%.

Regarding `COc1ccc(N(Cc2ccccc2)C(=O)c2ccc3c(c2OC)C=CC(C)(C)O3)nc1OC`, the results for the response, % of control in assay [2] and in assay [1] were 83.4% and 38.6%, respectively. As for `COc1ccc(N(C)C(=O)c2ccc3c(c2OC)C=CC(C)(C)O3)c(F)c1OC`, the response, % of control in assay [1] came to 93.1%. Consider `COc1ccc(N(CCN)C(=O)c2ccc3c(c2OC)C=CC(C)(C)O3)nc1OC`, for which the inhibition entry in assay [3] is “Dose-dependent effect”. The response, % of control in assay [2] came to 64%; in assay [1], 33.3%. `COc1ccc(N(C(=O)c2ccc3c(c2OC)C=CC(C)(C)O3)c2ccc(OC)c(OC)c2)cc1`: the response, % of control in assay [1] was determined as 61.9%. The same measure, in the same setting: to `COc1ccc(N(Cc2ccc(C)cc2)C(=O)c2ccc3c(c2OC)C=CC(C)(C)O3)nc1OC` belongs 71.1%.

As for `COc1ccc(N(CCOCc2ccccc2)C(=O)c2ccc3c(c2OC)C=CC(C)(C)O3)nc1OC`, the inhibition result in assay [3] was “Dose-dependent effect”. Moreover, the response, % of control in assay [2] turned out to be 69.3%; in assay [1], 57.2%. In the case of `COc1ccc(NC(=O)c2ccc3c(c2OC)C=CC(C)(C)O3)nc1OC`, the response, % of control in assay [1] worked out at 88.4%. In the case of `COc1ccc(N(CCN2CCCCC2)C(=O)c2ccc3c(c2OC)C=CC(C)(C)O3)c(F)c1OC`, the response, % of control in assay [1] came to 54.3%. `COc1ccc(N(CCN2CCOCC2)C(=O)c2ccc3c(c2OC)C=CC(C)(C)O3)c(F)c1OC`: the response, % of control amounted to 111% in assay [2] and 48.8% in assay [1]. On to `COc1ccc(N(CCN2CCOCC2)C(=O)c2ccc3c(c2OC)C=CC(C)(C)O3)nc1OC`, for which the inhibition result in assay [3] was “Dose-dependent effect”. Also, the response, % of control in assay [2] is 72.9%; in assay [1] it was 60.3%. As for `COCCN(C(=O)c1ccc2c(c1OC)C=CC(C)(C)O2)c1ccc(OC)c(OC)c1F`, the response, % of control in assay [1] stood at 59.3%.
